# According to patent publication US6958324B2, “Inosine compounds and their use for treating or preventing an inflamation or a reperfusion disease” (Inotek Pharmaceuticals Corporation, priority 1998, dated 2005):
# Marks after values point to notes of the source that are not given here.
# How the values were obtained:
# [1] = tested on: peritoneal macrophages stimulated with LPS/IFN-γ; test: IL-12 and TNF production by stimulated peritoneal macrophages exposed to inosine; format: cell-based
# Description: To determine the effect of inosine on inflammatory cytokine production, stimulated macrophages were exposed to inosine at 0 to 1000 μM, after which production of cytokines IL-12 and TNF was measured.
# STZ diabetic mice = test: Streptozotocin-induced diabetes: blood glucose, diabetes incidence, pancreatic insulin content; format: in vivo
# Description: The effect of inosine was in a […] model of streptozotocin-induced diabetes was examined. Mice were treated with streptozotocin (40 mg/kg in citrate buffer) or vehicle (citrate buffer) i.p. for 5 consecutive days to induce diabetes. Blood glucose was monitored over the following 21 days using a one-touch blood glucose meter (Lifescan). […] Hyperglycemia was defined as non-fasting blood glucose level higher than 200 mg/dL. Mice were treated simultaneously with streptozotocin injection throughout the 21 days of the experiments and with vehicle or inosine (100 mg/kg oral gavage, twice a day). Samples of pancreas were removed on day 21 and weighed before being placed into 6 mls of acid ethanol (23:7:0.45 ethanol:dH2O:HCl) and homogenized. The pancreas samples were incubated for 72 h at 4° C. before being centrifuged. The insulin content of the supernatant was then determined using an ELISA assay.
# An “*” indicates significant reduction of circulating glucose or diabetes incidence in the inosine-treated streptozotocin rats when compared to vehicle-treated streptozotocin rats (p<0.05).
# An “*” in TABLE 7 indicates significant decreases in insulin content in response to streptozotocin when compared to control, and a “#” indicates significant preservation of pancreatic insulin content in the inosine-treated streptozotocin rats (p<0.05). Pancreatic insulin content at 21 days in streptozotocin diabetic mice receiving vehicle or inosine treatment.
# BALB/c mice = test: LPS-induced lethality (survival) in mice; format: in vivo; settings: 100 mg/kg 30 min before 70 mg/kg i.p. LPS; 24-96 h; p<0.05 vs vehicle
# Description: Because inosine skewed the cytokine response towards an anti-inflammatory profile, the ability of inosine to decrease LPS-induced lethality in a murine model system was investigated. BALB/c mice were pretreated with drug vehicle (physiologic saline) or 100 mg/kg inosine 30 min before the injection of 70 mg/kg of i.p. LPS. Survival was recorded at 24, 48, 72, and 96 h after the LPS injection. Results from the summary of two different experiments are shown. N=16 animals in each group. Inosine improved survival rate at 24-96 h (p<0.05). Therefore, inosine conferred significant protection in this endotoxemic model. Thus, inosine is useful for treating or preventing an inflammation disease or a reperfusion disease.
# DSS mice [2] = test: DSS colitis, inosine versus 5′-IMS at 50, 100 and 300 μmoles/kg/day; format: in vivo
# Excerpt: The effect of various doses (50, 100 and 300 μmoles/kg/day) inosine and IMS on the outcome of DSS (dextran sodium sulfate) colitis in mice. Colonic length, gross histologic score, colonic MDA content and colonic MPO content have been determined. N=10 animals per experimental groups. *p<0.05 and **p<0.01 indicates significant improvements in drug treated DSS animals, when compared to vehicle treated DSS animals. Mean +SEM are presented, except for histological scores, which are presented as medians.
# Significant improvements in 5′-IMS treated DSS animals was observed as compared to vehicle treated DSS animals. Mean ±SEM are shown, except for the histological scores, which are presented as medians.
# male BALB/c mice = test: Plasma cytokine levels after LPS challenge in endotoxemic mice; format: in vivo; settings: 100 mg/kg i.p. 30 min before LPS 70 mg/kg i.p.
# Description: To determine whether inosine inhibits inflammatory cytokine release in vivo, male BALB/c mice were injected with inosine (100 mg/kg; i.p.) followed 30 minutes later by an i.p. injection of LPS (70 mg/kg). Plasma levels of the different cytokines were measured at various times (90 mm 2 h, 4 h, and 8 h) after the LPS challenge.
# The results are shown in FIGS. 1A-E. Data are mean ±SEM of n=8 mice. The asterisk in the figure indicates p<0.05. […] Inosine was also shown to augment IL-10 (FIG. 1E) production in endotoxemic mice. […] Inosine inhibits the production of proinflammatory cytokines, but also potentiates the formation of the anti-inflammatory IL-10. Accordingly, inosine is useful for treating or preventing an inflammation disease or a reperfusion disease.
# DSS mice [3] = test: DSS-induced inflammatory bowel disease model, inosine treatment; format: in vivo; settings: 5% DSS 10 days, inosine 200 mg/kg/day orally
# Description: The effect of inosine in a mouse model of inflammatory disease was examined. Inosine was administered (oral administration, 100 mg/kg, 2 times a day), in a mouse model of inflammatory bowel disease induced by dextran sulfate solution (DSS). This system is well-characterized and is considered a reliable model of inflammatory bowel disease. Efficacy of a pharmaceutical compound in this model is taken as evidence that the compound is likely to be effective in human beings (Sasaki et al., Scand. J. Immunol. 51:23-8,2000; Gaudio et al, Dig. Dis. Sci. 44:1458-75, 1999; Murthy et al., Aliment Pharmacol. Ther. 13:251-60, 1999; Kimura et al., Arzneimittelforschung 48:1091-96, 1998; Dieleman et al., Scand. J Gastroenterol. Suppl. 223:99-104, 1997).
# Symptoms associated with the DSS model were induced as follows. Mice were patiented to a drinking water containing 5% DSS for 10 days, in the presence (n=10) or absence (n=10) of inosine treatment (200 mg/kg/day, orally). At the end of 10 days, animals were evaluated for the incidence of bloody diarrhea, for colon shortening, and colon histopathology. Colonic myeloperoxidase (MPO) and malondialdehyde (MDA) levels were measured. These parameters provide a good cross-section of the functional and inflammatory changes associated with the current model of inflammatory bowel disease.
# Significant protective effect of inosine in the presence of DSS is indicated as *p<0.05, when compared to the values with DSS alone in the absence of inosine.
# [4] = day 0, inosine 100 mg/kg oral gavage twice a day
# [5] = 50, 100 and 300 μmoles/kg/day, vs vehicle treated DSS animals
compound,measurement,setting,value
"OC[C@H]1O[C@@H](n2cnc3c(O)ncnc32)[C@H](O)[C@@H]1O [Inosine, inosine]",IL-12,"[1]; Inosine 10 μM, control 6.84 ± 0.39",5.9 ± 0.19 ng/mL
same,TNF,"[1]; Inosine 10 μM, control […] ± 1.89",10.08 ± 1.3 ng/mL
same,IL-12,[1]; Inosine 30 μM,5.1 ± 0.14 ng/mL
same,TNF,[1]; Inosine 30 μM,8.38 ± 0.14 ng/mL
same,IL-12,[1]; Inosine 100 μM,4.46 ± 0.62 ng/mL
same,TNF,[1]; Inosine 100 μM,7.61 ± 0.33 ng/mL
same,IL-12,[1]; Inosine 300 μM,4.94 ± 0.06 ng/mL
same,TNF,[1]; Inosine 300 μM,5.45 ± 0.52 ng/mL
same,IL-12,[1]; Inosine 1000 μM,4.34 ± 0.39 ng/mL
same,TNF,[1]; Inosine 1000 μM,5.62 ± 0.88 ng/mL
same,Pancreatic insulin content,"STZ diabetic mice; 21 days, inosine treated, STZ vehicle 6 ± 1, control 68 ± 11",21 ± 4# ng insulin/mg protein
same,Diabetes Incidence,STZ diabetic mice; [4],0%
same,Mean Blood Glucose,STZ diabetic mice; [4],95 ± 4 mg/dL
same,Median Blood Glucose,STZ diabetic mice; [4],96 mg/dL
same,Diabetes Incidence,"STZ diabetic mice; day 7, inosine 100 mg/kg oral gavage twice a day, STZ vehicle 8",0%
same,Mean Blood Glucose,"STZ diabetic mice; day 7, inosine 100 mg/kg oral gavage twice a day, STZ vehicle 137 ± 7",112 ± 6* mg/dl
same,Median Blood Glucose,"STZ diabetic mice; day 7, inosine 100 mg/kg oral gavage twice a day, STZ vehicle 146",117* mg/dl
same,Diabetes Incidence,"STZ diabetic mice; day 21, inosine 100 mg/kg oral gavage twice a day, STZ vehicle 67",25* %
same,Mean Blood Glucose,"STZ diabetic mice; day 21, inosine 100 mg/kg oral gavage twice a day, STZ vehicle 231 ± 15",152 ± 20* mg/dl
same,Median Blood Glucose,"STZ diabetic mice; day 21, inosine 100 mg/kg oral gavage twice a day, STZ vehicle 260",130* mg/dl
same,survival rate,BALB/c mice,improved
same,protection against colonic shortening,DSS mice [2]; [5],not
same,protection against visible histological damage,DSS mice [2]; [5],not
same,dose at which colonic MDA levels were reduced,DSS mice [2]; first statement ('For example'),100 µmol/kg/day
same,"dose at which MDA levels were reduced (second statement, 'Similarly')",DSS mice [2]; second statement of b313,300 µmol/kg/day
same,production of TNF-α (plasma),male BALB/c mice; FIG. 1A,suppress
same,production of IL-12 (plasma),male BALB/c mice; FIG. 1B,suppress
same,production of IFN-γ (plasma),male BALB/c mice; FIG. 1C,suppress
same,production of MIP-1α (plasma),male BALB/c mice; FIG. 1D,suppress
same,IL-10 production (plasma),male BALB/c mice; FIG. 1E,augment
same,Gut histological damage (1-4 scale),DSS mice [3]; DSS alone 3.6 ± 0.4,1.2 ± 0.4*
same,Gut malondialdehyde levels,DSS mice [3]; DSS alone 3.7 ± 0.8,2.1 ± 0.5* nmol/mg protein
same,Colonic length,"DSS mice [3]; DSS alone 4.2 ± 0.1, in cm (unit assumed)",5.1 ± 0.1*
same,Weight loss of the animals at 10 days,DSS mice [3]; DSS alone 20 ± 2,13 ± 1* %
same,Incidence of rectal bleeding,DSS mice [3]; DSS alone 90,20* %
same,Gut myeloperoxidase levels,DSS mice [3]; DSS alone 296 ± 87,88 ± 14* nU/mg protein
